In patent publication US10106498B2, “Compositions relating to vitamin D” (Siemens Healthcare Diagnostics Inc., priority 2014, dated 2018):
“And” between values parts separate entries of the source, which are not always exact repeats. Equal values may be shown once.

Tested on: biotinylated monoclonal anti-25OH vitamin D antibody
Assay: LOCI 25(OH)D immunoassay: 3-epimer cross-reactivity, no anti-3-epimer antibody added
Type: binding, sheep
Conditions: for Avg. Cross-reactivity, No anti-3-epimer VD Ab Added: average of ten patient sera spiked with 100 ng/mL 3-epimer vitamin D3
Procedure: The 25OH Vitamin D (25(OH)D) immunoassay format employed was a homogeneous competitive chemiluminescent immunoassay based on LOCI® assay technology. The assay was performed on the Siemens Dimension® EXL automated integrated clinical chemistry system (Siemens Healthcare Diagnostics Inc., Deerfield, Ill.). The assay measured the total concentration of 25(OH)D2 and/or 25(OH)D3 in serum and plasma samples. The LOCI® assay reagents included a releasing reagent, two synthetic bead reagents and a biotinylated monoclonal anti-25OH vitamin D antibody reagent. The first bead reagent (designated “Sensibeads”) was coated with streptavidin and contained a photosensitive dye. The second bead reagent (designated “Chemibeads”) was coated with a 25(OH)D3 analog and contained chemiluminescent dye. Sample was incubated with the releasing reagent to release 25(OH)D molecules including 3-epimeric compounds from vitamin D binding proteins. The reaction mixture was then incubated with biotinylated antibody to form a 25(OH)D-biotinylated antibody complex. […] Chemibeads were added to bind excess free biotinylated antibody. Sensibeads were then added to bind to the biotin portion of the biotinylated antibody. Aggregates of Chemibead-analog/antibody-biotin/streptavidin-Sensibeads were formed as a result. Illumination of the reaction mixture with light at 680 nm generates singlet oxygen from Sensibeads, which diffused into the Chemibeads and triggered a chemiluminescent reaction. The resulting chemiluminescent signal was measured at 612 nm and is inversely proportional to the concentration of total 25(OH)D in the sample.
The effect of adding anti-3-epimer-VD antibody 8F10.1 (anti-3-epimer VD Ab) on the 3-epimer cross-reactivity for the assay is shown in Table 1. […] The 3-epimer cross-reactivity was calculated by the difference between 25(OH)D2 or 25(OH)D3 values with and without the spiked 3-epimer compound divided by the amount of added 3-epimer compound.

C=C1CC[C@@H](O)C/C1=C/C=C1\CCC[C@]2(C)[C@@H]([C@H](C)CCCC(C)(C)O)CC[C@@H]12 [3-epimer D3, 3-epi-25-hydroxyvitamin D3]
Avg. Cross-reactivity, No anti-3-epimer VD Ab Added: 13.7% | Avg. Cross-reactivity, No anti-3-epimer VD Ab Added (listed as 3-epimer vitamin D3 compound): 13.7% | Cross-Reactivity, No anti-3-epimer VD Ab Added (individual patient sera (Sample ID 1-10) spiked with 100 ng/mL 3-epimer vitamin D3): 17.9% (2×) and 11.9% and 12.6% and 16.1% and 10.2% and 9.1% and 10.5% and 15.3% and 15.5%
